# Legend:
# SGC7901 cells = test: MTT assay SGC7901; format: cell-based; conditions: Homo sapiens, SGC-7901, 24h of treatment, mean ± SD
# Method: (§1) Details are given in Supplementary Materials and Methods. Using probability unit and weighted regression method to calculate the IC50 value of compounds.
# (§2) Total cells in the logarithmic growth phase were collected, digested using 0.25% pancreatic enzymes, and then diluted into single-cell suspensions using phosphate-buffered solution (PBS). These cells were seeded into 96-well plates at 4× 10^3-5× 10^3 cells per well (100 µL per well) and then A549, H460, OVCAR-3, SGC7901, MDA-MB-231, HCT116 and HepG2 were cultured at 37°Cin an incubator containing 5% CO2. After cell complete attachment, 100 µL of different concentrations of compounds (0.625 μM, 1.25 μM, 2.5μM, 5 μM, 10 μM) were added to the cells after the nutrient solution in each well was discarded, while no compound except 0.1% DMSO was added to cells in the control group; at the same time, each concentration was set up to 5 wells. In addition, 5 wells in each 96-well plate only received 100 µL of nutrient solution as a blank control. The plates were taken out after the cells were incubated with compounds for 24 h, and 20 µL of MTT solution (5 mg/mL) (Wuhan Boster Biotechnology Limited Company, Wuhan, China; item No. AR1156) was added into all the wells. After another time of incubation for 4 h at 37 °C, the nutrient solution in each well was discarded slowly, and 150 µL of DMSO was added to each well. The plates were shaken on a shaking table for 20 min. When the crystals were fully dissolved, the blank wells were used to zero the plate reader. The optical density (OD) of each well was detected at 490 nm. The IC50 value was determined as the concentration of the inhibitor that caused 50% inhibition. Using probability unit and weighted regression method to calculate the IC50 value of compounds.
# HCT-116 cells = test: MTT assay HCT-116; format: cell-based; conditions: Homo sapiens, 24h of treatment, mean ± SD
# Method: as §1, §2
# MDA-MB-231 cells = test: MTT assay MDA-MB-231; format: cell-based; conditions: Homo sapiens, 24h of treatment, mean ± SD
# Method: as §1, §2
# IOSE80 cell line = test: Selectivity index against IOSE80; format: cell-based; conditions: SI = CC50/IC50
# HTB-125 cell line = test: Selectivity index against HTB-125; format: cell-based; conditions: SI = CC50/IC50
# A549 cells = test: Transwell migration and wound healing, A549; format: cell-based, human; conditions: A549, 0.5, 1.0, 1.5 μM, 24 h
# Method: Cell migration ability was measured using transwell chambers (8-μm pore size; Corning Costar, Cambridge, MA, USA). For the transwell assay, A549 and H460 cells suspended in serum-free RPMI-1640 medium containing different concentrations of L14e (0, 0.5, 1.0, and 1.5 μM) were seeded into the upper chamber. The lower chamber contained RPMI-1640 medium supplemented with 20% serum. After 24 h incubation, the filters were fixed in methanol and stained with 0.1% crystal violet. The upper faces of the filters were gently abraded, and the lower faces with cells migrated across the filters were imaged and counted under the microscope. For wound healing assays, cells were placed into 6-well plates and cultured until 100% confluence. An artificial scratch was created using a 200 μL pipette tip. Add serum-free RPMI-1640 medium containing different concentrations of drugs. At 24 h after culturing in serum-free medium, wound closure images were captured in the same field under magnification. Cell healing rates were calculated by the fraction of cell coverage across the line. These experiments were performed in triplicate and repeated three times.
# p-EGFR, p-AKT, p-ERK1/2 = test: Western blot EGFR signaling pathway, H460; format: cell-based, human; conditions: H460, 0.5, 1.0, 1.5 μM, 24 h, EGF 50 ng/ml
# Method: A549 cells, H460 cells and HUVECs were treated with different concentrations of compound L14e for 24 h. Primary antibodies (100 μL/cm^2): P53(10442-1-AP, Proteintech Group),caspase-3 (19677-1-AP, Proteintech Group), bax (50599-2-lg, Proteintech Group), bcl-2 (12789-1-AP, Proteintech Group), cleaved caspase-3 (25546-1-AP, Proteintech Group), β-actin (60008-1-lg, Proteintech Group), EGFR (ab21074, Abcam), AKT (#2920, Cell Signaling Technology), ERK1/2 (#4370, Cell Signaling Technology), VEGFR-2 (#9698, Cell Signaling Technology), p-EGFR (ab40815, Abcam), p-AKT (#4060, Cell Signaling Technology), p-ERK1/2 (#4695, Cell Signaling Technology), p-VEGFR-2 (#3770, Cell Signaling Technology), and GAPDH (ab181603, Abcam). The cellular levels of proteins were determined by standard Western blotting. Details were given in Supplementary Materials and Methods.
# A549 cells, H460 cells and HUVECs were treated with different concentrations of compound L14e for 24 h, and collected to establish their respective treatment groups. […]
# Extracted proteins were separated from each other using polyacrylamide electrophoresis on a 10 % gel (Beyotime Biotechnology Company, Shanghai, China) and transferred to a polyvinylidene fluoride (PVDF) membrane. […] Gray values of protein bands were quantitatively analyzed, with the gray value of β-actin(GAPDH) band as the reference.
# HUVECs = test: Tube formation in vitro; format: cell-based, human
# Method: Matrigel was thawed at 4 °C and 50 μL of the solution were added to each well in a 96-well plate and formed a gel at 37 °C for 30 min. HUVECs were suspended at 1 × 10^4 cells in 100 μL of A549 cell supernatant with or without L14e (0, 0.5, 1.0, and 1.5 μM), and then added to each well. After 24h-incubation, the degree of tube formation was determined by counting the number of areas surrounded by tubes contained in 10 random fields, and expressed as mean ± SD. Using Image J for data analysis.
compound,measurement,setting,value
"O=C(Nc1cccc(Cl)c1)Nc1ccccc1NS(=O)(=O)c1c[nH]c(=O)[nH]c1=O [Compound L14e, N'-(3-chlorophenyl)-2-(2,4-dihydroxypyrimidine-5-sulfonamido)phenyl urea]",IC50,SGC7901 cells,1950 ± 150 nM
same,IC50,HCT-116 cells,1980 ± 180 nM
same,IC50,MDA-MB-231 cells,2600 ± 80 nM
same,SI (Selectivity index) IOSE80,IOSE80 cell line,8.79
same,SI (Selectivity index) HTB-125,HTB-125 cell line,10.39
same,effect on cell migration,A549 cells,significantly inhibited the migration
same,expression of phosphorylated EGFR (Tyr1068) and AKT (Ser473),"p-EGFR, p-AKT, p-ERK1/2",significantly reduced
same,expression of phosphorylated VEGFR-2 (Tyr1175) in HUVECs,HUVECs; dose-dependent,inhibiting the expression of phosphorylated VEGFR-2
same,tube formation of HUVECs,"HUVECs; supernatant of A549 cells treated with 0.5, 1.0, 1.5 μM, 24 h",inhibited tube formation
